Measurements published in the supplement of paper PMC10307832.

Tests used:
Assay in all cases: relative viability (nuclei count vs DMSO), 5 days (fraction); higher = more cells survive
[1] = compound: C1CNCCC1C2=CC(=NN2)C3=CC=NC=C3 + C[C@]1(O)C[C@@H](c2nc(-c3ccc4ccc(-c5ccccc5)nc4c3)c3c(N)nccn32)C1 [Linsitinib] (partner 1 µM)
How it was run: (§1)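 A single step with final 0.05% Triton X-100, 1% formaldehyde and 1 ug/ml Hoechst fixed the cells and stained nuclei 5 days after treatment. Lung cancer cell lines in 1536-well plates had been treated by pin tool the day after seeding with one drug alone or a fixed anchor-drug dose plus five library-drug doses (not always all listed) in √10 steps, and nuclei were counted on 4× images. Relative viability is the ratio of nuclei in treated wells to nuclei in vehicle wells, taken as the median of duplicate plates.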

[2] = compound: C[C@@H](N)c1ccc(C(=O)Nc2ccnc3[nH]ccc23)cc1 + Nc1ncn([C@H]2C[C@H](O)[C@@H](CO)O2)c(=O)n1 [Decitabine] (partner 2 µM)
How it was run: as §1

[3] = compound: O[C@H]1CC[C@H](Nc2ncc3nc(Nc4c(F)cc(F)cc4F)n([C@H]4CCOC4)c3n2)CC1 [Tanzisertib] + Cc1nc(NC(=O)N2CCC[C@H]2C(N)=O)sc1-c1ccnc(C(C)(C)C(F)(F)F)c1 [Alpelisib] (partner 2 µM)
How it was run: as §1

[4] = compound: C[C@@H](N)c1ccc(C(=O)Nc2ccnc3[nH]ccc23)cc1 + COc1cc2c(Oc3ccc(NC(=O)C4(C(=O)Nc5ccc(F)cc5)CC4)cc3F)ccnc2cc1OCCCN1CCOCC1 [Foretinib] (partner 0.25 µM)
How it was run: as §1

Cell Line	relative viability ([1]; first compound 0.08 µM)	relative viability ([1]; first compound 0.8 µM)	relative viability ([1]; first compound 2.53 µM)	relative viability ([1]; first compound 8 µM)	relative viability ([2]; first compound 0.04 µM)	relative viability ([2]; first compound 0.1265 µM)	relative viability ([2]; first compound 0.4 µM)	relative viability ([2]; first compound 1.265 µM)	relative viability ([2]; first compound 4 µM)	relative viability ([3]; first compound 0.08 µM)	relative viability ([3]; first compound 0.253 µM)	relative viability ([3]; first compound 0.8 µM)	relative viability ([3]; first compound 2.53 µM)	relative viability ([3]; first compound 8 µM)	relative viability ([4]; first compound 0.04 µM)	relative viability ([4]; first compound 0.1265 µM)	relative viability ([4]; first compound 0.4 µM)	relative viability ([4]; first compound 1.265 µM)	relative viability ([4]; first compound 4 µM)
NCI-H2023	0.62	0.671	0.629	0.647	0.252	0.243	0.245	0.222	0.159	0.671	0.577	0.627	0.584	0.545	0.965	1.14	1.4	0.988	0.766
NCI-H1755	1.01	0.966	0.969	0.916	0.728	0.728	0.712	0.76	0.684	1.05	0.897	0.918	0.84	0.852	0.95	0.96	0.901	0.903	0.664
NCI-H23	0.5	0.642	0.675	0.644	0.296	0.295	0.363		0.301	0.63	0.617	0.705	0.747	0.718	0.985	1.09	0.981		1.01
ABC-1	0.702	0.644	0.685	1.01	1.2	0.895	1.13	1.46	1.46	1.1	1.06	1.03	1.3	1.09	1.25	1.12	1.34		0.993
201T	1.02	1.01	0.996	1.04	0.846	0.853	0.851	0.979	0.941	1.03	1.04	1.01	0.993	1.01	1.1	1.04	1.25		1.31
NCI-H1734	0.845	0.885	0.908	0.811	0.477	0.506	0.53	0.52	0.462	0.724	0.704	0.673	0.702	0.642	0.996	0.95	0.867	0.855	0.683
NCI-H520	0.883	1.04	0.867	0.912	0.579	0.552	0.61	0.617	0.569	0.958	0.886	1.07	0.937	0.927	0.862	0.707	0.817	1.28	0.95
NCI-H1355	0.868	0.71	0.891	0.797	0.343	0.332	0.317	0.306	0.322	0.838	0.871	0.886	0.864	0.881	1.01	1.02	1.09	1.1	0.924
NCI-H1915	1.05	1.14	1.1	1.11		0.265	0.242		0.235	1.15	1.05	1.06	1.04	1.04	1.17	1.11	1.12		0.984
BEN	0.689	0.984	0.921	0.913	0.53	0.732	0.822	0.757	0.568	0.978	1.04	1.08	0.955	1.01	0.331	0.525	0.878	0.689	0.4
NCI-H3122	0.981	0.981	1.06	1.04	0.46	0.454	0.419	0.458	0.458	0.965	0.735	0.844	0.731	0.782	0.943	1.03	0.952	0.98	0.897
SK-MES-1	1.07	1.1	1.15	0.953	0.341	0.309	0.32	0.322	0.314	0.922	0.904	0.951	0.921	0.856	0.849	1.07	0.847	0.785	0.78
HOP-62	0.892	1.12	1.19	1.08	0.21	0.225	0.241	0.206	0.207	0.956	1.1	1.02	1.11	1.16	1.09	1.05	1.03	1.16	0.982
HCC-366	0.55	0.756	0.712	0.622	0.323	0.331	0.353	0.405	0.343	0.438	0.346	0.295	0.377	0.287	0.987	0.926	0.936		1.07
NCI-H2347	0.916	0.961	1.06	0.936	0.657	0.594	0.623	0.566	0.54	1.17	1.04	1.1	1.16	1.11	1.17	0.964	1.22		1.32
A549	0.509	0.556	0.696	0.729	0.343	0.254	0.374	0.316	0.286	0.759	0.648	0.709	0.706	0.712	1.09	0.98	1.07	0.776	0.515
LXF-289	0.963	1.04	0.981	0.9	0.406	0.362	0.362	0.373	0.331	1.06	1.02	1.05	1.04	1.11	1.11	0.993	0.987	1.07	0.843
NCI-H1793	0.67	0.669	0.922	0.876	0.506	0.556	0.547		0.463	0.842	0.532	0.754	0.754	0.733	0.692	0.829	0.946		0.83

Cell Line	relative viability ([1]; first compound 0.08 µM)	relative viability ([1]; first compound 0.8 µM)	relative viability ([1]; first compound 2.53 µM)	relative viability ([1]; first compound 8 µM)	relative viability ([2]; first compound 0.04 µM)	relative viability ([2]; first compound 0.1265 µM)	relative viability ([2]; first compound 0.4 µM)	relative viability ([2]; first compound 1.265 µM)	relative viability ([2]; first compound 4 µM)	relative viability ([3]; first compound 0.08 µM)	relative viability ([3]; first compound 0.253 µM)	relative viability ([3]; first compound 0.8 µM)	relative viability ([3]; first compound 2.53 µM)	relative viability ([3]; first compound 8 µM)	relative viability ([4]; first compound 0.04 µM)	relative viability ([4]; first compound 0.1265 µM)	relative viability ([4]; first compound 0.4 µM)	relative viability ([4]; first compound 1.265 µM)	relative viability ([4]; first compound 4 µM)
LU99A	0.53	0.579	0.551	0.513		1.03	0.824	0.773	0.598	0.549	0.519	0.521	0.503	0.456		0.875	0.714	0.681	0.621
PC-14	0.997	0.992	1.03	0.941	0.24	0.217	0.277	0.258	0.188	0.942	0.947	0.943	0.873	0.57	0.753	0.943	0.95	0.877	0.832
NCI-H2085	0.975	0.732	1.1	0.95	0.528	0.573	0.742	0.561	0.521	0.997	0.96	0.966	0.948	1.01	1.03	0.989	0.918	0.901	0.79
HCC-78	0.446		0.513	0.61	0.772	0.782	0.83	0.725	0.62	0.322	0.304	0.309	0.372	0.34	0.626	0.573	0.623	0.771	0.693
NCI-H1395	1.02	0.886	1.24	0.977	0.712	0.697	0.725		0.642	1.11	1.14	1.04	1.04	0.983	1.07	1.14	1.06	0.995	0.909
NCI-H2126	0.718	0.636	0.789	0.748	0.56	0.583	0.596	0.599	0.572	0.775	0.749	0.749	0.725	0.736	1.2	1.13	1.29		1.09
H3255	0.858	1.13	0.957	0.993	0.603	0.747	0.67	0.67	0.481	0.739	0.718	0.665	0.629	0.471	0.855	0.939	1.14	0.731	0.892
HCC-15	0.809	0.903	0.937	0.905	0.698	0.613	0.623	0.612	0.514	1.04	0.884	0.924	0.874	0.797	1.21	1.03	0.966		0.975
NCI-H661	0.534	0.524	0.528	0.584	0.51	0.59	0.573	0.493	0.504	0.84	0.716	0.561	0.527	0.412	0.947	1.09	1.03	0.923	0.855
NCI-H2009	1.2	1.18	1.25	1.22	0.318	0.391	0.355	0.346	0.351	1.24	1.2	1.14	1.19	1.17	1.2	1.14	1.11	1.02	0.868
COR-L23	0.931	1.05	0.984	0.918	0.385	0.441	0.421	0.393	0.305	0.784	0.759	0.743	0.807	0.793	0.943	1.01	1.02	0.938	0.534
EMC-BAC-2	0.78	0.806	0.818	0.771	1	0.968	1.11	1.04	0.903	0.78	0.754	0.725	0.688	0.688	1.08	1.05	1.11	0.967	0.903
LCLC-103H	1.07	0.846	1.1	0.951	0.652	0.69	0.724	0.716	0.652	0.983	0.94	0.965	0.981	0.923	0.901	0.821	0.69	0.77	0.643
LK-2		0.751	0.427	0.519	0.351	0.287	0.359	0.237	0.352	1.12	0.946	1.16	1.07	1.12	1.32		1.49		1.46
SW 1573	0.815	0.786	0.902	0.952	0.569	0.577	0.567	0.497	0.301	0.823	0.656	0.735	0.81	0.578	1.06	0.964	1.19	0.93	0.849
NCI-H2405	0.979	0.771	1.07	0.913		0.801	0.695	0.448	0.248	0.933	0.696	0.805	0.83	0.547	1.12	1.09	1.13	0.838	0.519
NCI-H2087	1.04	1.09	0.973	0.96	0.293	0.325	0.357	0.362	0.31	1.27	1.22	1.24	1.11	1.32	1.16	1.07	1.1		0.983
